From patent publication US9072791B2, “Photostabilized pharmaceutical compositions” (DENKI KAGAKU KOGYO KABUSHIKI KAISHA, priority 2008, dated 2015)
Values joined by “and” are separate entries in the source; they are usually repeats but may differ in a detail not shown here. Equal entries are not always repeated. Where two headings read alike, the source gives them in different places.

What was measured:
[1] = Photostability test in glass vials not shielded from light: gelation, molecular weight, percent conjugation of MTX (Example 4(2)); type: physicochemical
Experimental: Various photostabilizers (methyl p-hydroxybenzoate (methyl paraben), salicylic acid Na, thiosulfuric acid Na, thioglycolic acid Na, N-acetyltryptophan, and tryptophan) were each dissolved in a preparation buffer (0.9% NaCl containing 2 mM phosphate buffer, pH 7.4) to give a concentration of 1 or 10 mg/ml and thereafter filtered aseptically by passage through a 0.2-μm filter (Millex GV). A powder of the HA-MTX conjugate prepared in accordance with Production 1 was metered aseptically and dissolved in the filtered, photostabilizer-containing preparation buffer to give a concentration of 10 mg/mL; the thus prepared solutions were used as test samples. To prepare a control solution, the HA-MTX conjugate was dissolved in a photostabilizer-free preparation buffer at a concentration of 10 mg/mL.
The thus prepared solutions were put into glass vials not shielded from light and then irradiated with light.
The irradiation was so performed as to give an illuminance of 4000 Lux at 25° C. from a fluorescent lamp for use in a photostability test (TOSHIBA FL20S•D-EDL-D65) by means of a photostability tester (ETAC LABONIC LA110). After the lapse of specified periods (0 h, 25 h, 50 h, 100 h, 150 h, and 300 h) of irradiation, samples were taken and not only checked for gelation but also measured for the molecular weight of the HA-MTX conjugate and the percent conjugation of MTX (in the HA-MTX conjugate).
To evaluate the degree of gelation, the surface of each sample solution was pierced with a spatula and visually checked for the formation of an interface as the result of gelation. […] The apparatus used in gel filtration chromatography was equipped with OHpackSB-806HQ (Shodex) as a column, RI-71 (Shodex) as an […], and 875-UV (JASCO, detection wavelength: 304 nm) as a UV detector and analysis was conducted under the following conditions. Eluent: 50 mM sodium phosphate aqueous solution (pH 6.0); elution rate: 0.6 mL/min; column temperature: 40° C. By the above-described gel filtration chromatography, the elution times of the conjugate of interest were determined and the molecular weight of the same conjugate was determined from the relationship between the elution times and molecular weights of standard substances. As the standard substances, hyaluronic acid samples were prepared in varying molecular weights and their accurate values were calculated by the limiting viscosity method before it was used.

[2] = Photostability test with additional light-shielding film LUMICOOL 1905 (Example 6); type: physicochemical; settings: for Molecular weight (×10^4), irradiation time 0 h / Molecular weight (×10^4), irradiation time 150 h / Molecular weight (×10^4), irradiation time 300 h / Percent Conjugation (%), irradiation time 0 h / Percent Conjugation (%), irradiation time 150 h / Percent Conjugation (%), irradiation time 300 h: vial wrapped with LUMICOOL 1905;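 on all read-outs here: molecular weight and drug conjugation percentage of the test conjugate, both determined by the method given for the first production procedure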
[3] = added at 1 mg/mL, not shielded from light
[4] = additive 1 mg/ml, 4000 Lux, 25° C., not shielded from light
[5] = additive 10 mg/ml, 4000 Lux, 25° C., not shielded from light

| SMILES | suppressing drops in the molecular weight and percent conjugation [1, 3] | Molecular weight (×10^4), irradiation time 0 h [1, 4] | Molecular weight (×10^4), irradiation time 25 h [1, 4] | Molecular weight (×10^4), irradiation time 50 h [1, 4] | Molecular weight (×10^4), irradiation time 100 h [1, 4] | Molecular weight (×10^4), irradiation time 150 h [1, 4] | Molecular weight (×10^4), irradiation time 300 h [1, 4] | Percent Conjugation (%) of MTX, irradiation time 0 h [1, 4] [%] | Percent Conjugation (%) of MTX, irradiation time 25 h [1, 4] [%] | Percent Conjugation (%) of MTX, irradiation time 50 h [1, 4] [%] | Percent Conjugation (%) of MTX, irradiation time 100 h [1, 4] [%] | Percent Conjugation (%) of MTX, irradiation time 150 h [1, 4] [%] | Percent Conjugation (%) of MTX, irradiation time 300 h [1, 4] [%] | Molecular weight (×10^4), irradiation time 0 h ([2]; additive 1 mg/mL) | Molecular weight (×10^4), irradiation time 150 h ([2]; additive 1 mg/mL) | Molecular weight (×10^4), irradiation time 300 h ([2]; additive 1 mg/mL) | Percent Conjugation (%), irradiation time 0 h ([2]; additive 1 mg/mL) [%] | Percent Conjugation (%), irradiation time 150 h ([2]; additive 1 mg/mL) [%] | Percent Conjugation (%), irradiation time 300 h ([2]; additive 1 mg/mL) [%] | Molecular weight (×10^4), irradiation time 0 h ([2]; additive 10 mg/mL) | also measured |
| --- | --- | --- | --- | --- | --- | --- | --- | --- | --- | --- | --- | --- | --- | --- | --- | --- | --- | --- | --- | --- | --- |
| CC(=O)N[C@@H](Cc1c[nH]c2ccccc12)C(=O)O [N-acetyltryptophan] | could suppress drops in the molecular weight and percent conjugation for irradiation periods that did not exceed about 100 hours | 178 ×10^4 | 164 ×10^4 | 166 ×10^4 | 138 ×10^4 | 128 ×10^4 | 78 ×10^4 | 2.2 | 2.2 | 2.3 | 2.2 | 2.1 | 2.1 | 178 ×10^4 | 172 ×10^4 | 136 ×10^4 | 2.2 | 2.3 | 2.2 | 190 ×10^4 | Molecular weight (×10^4), irradiation time 0 h [1, 5]: 190 ×10^4; Molecular weight (×10^4), irradiation time 25 h [1, 5]: 180 ×10^4; Molecular weight (×10^4), irradiation time 50 h [1, 5]: 175 ×10^4; Molecular weight (×10^4), irradiation time 100 h [1, 5]: 146 ×10^4; Molecular weight (×10^4), irradiation time 150 h [1, 5]: 135 ×10^4; Molecular weight (×10^4), irradiation time 300 h [1, 5]: 97 ×10^4; Percent Conjugation (%) of MTX, irradiation time 0 h [1, 5]: 2.2%; Percent Conjugation (%) of MTX, irradiation time 25 h [1, 5]: 2.2%; Percent Conjugation (%) of MTX, irradiation time 50 h [1, 5]: 2.2%; Percent Conjugation (%) of MTX, irradiation time 100 h [1, 5]: 1.9%; Percent Conjugation (%) of MTX, irradiation time 150 h [1, 5]: 2.1%; Percent Conjugation (%) of MTX, irradiation time 300 h [1, 5]: 2.0%; Molecular weight (×10^4), irradiation time 150 h ([2]; additive 10 mg/mL): 186 ×10^4; Molecular weight (×10^4), irradiation time 300 h ([2]; additive 10 mg/mL): 187 ×10^4; Percent Conjugation (%), irradiation time 0 h ([2]; additive 10 mg/mL): 2.2%; Percent Conjugation (%), irradiation time 150 h ([2]; additive 10 mg/mL): 2.2%; Percent Conjugation (%), irradiation time 300 h ([2]; additive 10 mg/mL): 2.2% |
| O=C([O-])c1ccccc1O.[Na+] [Na salicylate, sodium salicylate] |  |  |  |  |  |  |  |  |  |  |  |  |  | 186 ×10^4 | 184 ×10^4 | 163 ×10^4 | 2.2 | 2.1 | 2.2 | 185 ×10^4 | Molecular weight (×10^4), irradiation time 0 h [1]: 185 ×10^4 and 186 ×10^4; Molecular weight (×10^4), irradiation time 25 h [1]: 176 ×10^4 and 172 ×10^4; Percent Conjugation (%) of MTX, irradiation time 0 h [1]: 2.2%; Percent Conjugation (%) of MTX, irradiation time 25 h [1]: 2.2%; Percent Conjugation (%) of MTX, irradiation time 50 h [1]: 2.1%; Percent Conjugation (%) of MTX, irradiation time 100 h [1]: 2.1% and 1.9%; Percent Conjugation (%) of MTX, irradiation time 150 h [1]: 2.2% and 1.8%; Percent Conjugation (%) of MTX, irradiation time 300 h [1]: 2.2% and 2.0%; suppressing drops in the molecular weight and percent conjugation [1]: considerably effective in suppressing drops in the molecular weight and percent conjugation even when the time of irradiation exceeded 100 hours; Molecular weight (×10^4), irradiation time 150 h ([2]; additive 10 mg/mL): 190 ×10^4; Molecular weight (×10^4), irradiation time 300 h ([2]; additive 10 mg/mL): 179 ×10^4; Percent Conjugation (%), irradiation time 0 h ([2]; additive 10 mg/mL): 2.2%; Percent Conjugation (%), irradiation time 150 h ([2]; additive 10 mg/mL): 2.2%; Percent Conjugation (%), irradiation time 300 h ([2]; additive 10 mg/mL): 2.1%; stabilizing effects (suppressing effects on the drop in molecular weight and the drop in percent conjugation of MTX) ([2]; with light-shielding film LUMICOOL 1905): comparable to those obtained in the case where complete shielding of light was ensured by aluminum foil |
| N[C@@H](Cc1c[nH]c2ccccc12)C(=O)O [Tryptophan, tryptophan] | could suppress drops in the molecular weight and percent conjugation for irradiation periods that did not exceed about 100 hours | 188 ×10^4 | 171 ×10^4 | 138 ×10^4 | 112 ×10^4 | 83 ×10^4 | 45 ×10^4 | 2.2 | 2.2 | 2.2 | 2.2 | 2.1 | 2.2 | 188 ×10^4 | 176 ×10^4 | 153 ×10^4 | 2.2 | 2.2 | 2.2 | 181 ×10^4 | Molecular weight (×10^4), irradiation time 0 h [1, 5]: 181 ×10^4; Molecular weight (×10^4), irradiation time 25 h [1, 5]: 175 ×10^4; Molecular weight (×10^4), irradiation time 50 h [1, 5]: 164 ×10^4; Molecular weight (×10^4), irradiation time 100 h [1, 5]: 118 ×10^4; Molecular weight (×10^4), irradiation time 150 h [1, 5]: 110 ×10^4; Molecular weight (×10^4), irradiation time 300 h [1, 5]: 70 ×10^4; Percent Conjugation (%) of MTX, irradiation time 0 h [1, 5]: 2.2%; Percent Conjugation (%) of MTX, irradiation time 25 h [1, 5]: 2.3%; Percent Conjugation (%) of MTX, irradiation time 50 h [1, 5]: 2.2%; Percent Conjugation (%) of MTX, irradiation time 100 h [1, 5]: 2.2%; Percent Conjugation (%) of MTX, irradiation time 150 h [1, 5]: 2.2%; Percent Conjugation (%) of MTX, irradiation time 300 h [1, 5]: 2.2%; Molecular weight (×10^4), irradiation time 150 h ([2]; additive 10 mg/mL): 177 ×10^4; Molecular weight (×10^4), irradiation time 300 h ([2]; additive 10 mg/mL): 156 ×10^4; Percent Conjugation (%), irradiation time 0 h ([2]; additive 10 mg/mL): 2.2%; Percent Conjugation (%), irradiation time 150 h ([2]; additive 10 mg/mL): 2.2%; Percent Conjugation (%), irradiation time 300 h ([2]; additive 10 mg/mL): 2.2% |
| COC(=O)c1ccc(O)cc1 [Methyl paraben, methyl p-hydroxybenzoate] | could suppress drops in the molecular weight and percent conjugation for irradiation periods that did not exceed about 100 hours | 187 ×10^4 | 155 ×10^4 | 127 ×10^4 | 107 ×10^4 | 126 ×10^4 | 65 ×10^4 | 2.2 | 2.0 | 2.1 | 2.0 | 2.1 | 1.9 | 187 ×10^4 | 184 ×10^4 | 179 ×10^4 | 2.2 | 2.2 | 2.2 |  | stabilizing effects (suppressing effects on the drop in molecular weight and the drop in percent conjugation of MTX) [2]: comparable to those obtained in the case where complete shielding of light was ensured by aluminum foil |
